According to ChEMBL document CHEMBL4706518, “Discovery of MGS0274, an ester prodrug of a metabotropic glutamate receptor 2/3 agonist with improved oral bioavailability” (Eur J Med Chem, 2020):
Activity calls are given as the source filed them. No cut-off for these calls is given here.

Columns and labels:
[1] = molecular target: Alpha-2C adrenergic receptor (Homo sapiens) (UniProt P18825); assay: Binding affinity to alpha2C adrenoreceptor (unknown origin) 10 umol/L by radioligand binding assay; details: dose 10.0 µmol/L
[2] = molecular target: Neurotensin receptor type 1 (Homo sapiens) (UniProt P30989); assay: Binding affinity to NT1 receptor (unknown origin) 10 umol/L by radioligand binding assay; details: dose 10.0 µmol/L
Neurotensin receptor type 1 (Homo sapiens), sequence (P30989 whole entry): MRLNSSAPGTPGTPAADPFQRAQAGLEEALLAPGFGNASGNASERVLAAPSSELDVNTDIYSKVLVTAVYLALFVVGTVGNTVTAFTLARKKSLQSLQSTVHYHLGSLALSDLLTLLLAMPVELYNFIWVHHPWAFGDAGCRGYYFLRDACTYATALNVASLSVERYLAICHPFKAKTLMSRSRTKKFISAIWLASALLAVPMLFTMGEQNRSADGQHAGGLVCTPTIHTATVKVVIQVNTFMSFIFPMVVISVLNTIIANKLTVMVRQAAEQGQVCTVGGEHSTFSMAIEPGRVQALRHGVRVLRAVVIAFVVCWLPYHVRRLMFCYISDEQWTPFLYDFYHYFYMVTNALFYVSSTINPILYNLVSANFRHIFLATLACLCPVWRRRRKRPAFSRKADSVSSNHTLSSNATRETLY

[3] = molecular target: Vasopressin V1b receptor (Homo sapiens) (UniProt P47901); assay: Binding affinity to Vasopressin V1b receptor (unknown origin) 10 umol/L by radioligand binding assay; details: dose 10.0 µmol/L
Vasopressin V1b receptor (Homo sapiens), sequence (P47901 whole entry): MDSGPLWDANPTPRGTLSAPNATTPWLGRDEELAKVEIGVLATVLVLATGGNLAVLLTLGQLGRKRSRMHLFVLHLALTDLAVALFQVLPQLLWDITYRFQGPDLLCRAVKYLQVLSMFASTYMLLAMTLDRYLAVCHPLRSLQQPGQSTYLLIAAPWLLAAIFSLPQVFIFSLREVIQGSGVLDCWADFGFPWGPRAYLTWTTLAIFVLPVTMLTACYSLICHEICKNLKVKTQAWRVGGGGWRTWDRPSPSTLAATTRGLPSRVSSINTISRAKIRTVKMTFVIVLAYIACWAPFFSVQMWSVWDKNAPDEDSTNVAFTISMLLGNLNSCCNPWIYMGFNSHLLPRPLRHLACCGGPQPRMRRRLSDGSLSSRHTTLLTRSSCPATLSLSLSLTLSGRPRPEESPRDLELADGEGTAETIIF

[4] = molecular target: T1, Metabotropic glutamate receptor 3 (Homo sapiens, UniProt Q14832); assay: Agonist activity at human mGlu3 receptor expressed in CHO cell membranes by GTPgammaS binding assay relative to control; format: functional, Cell membrane
[5] = molecular target: Muscarinic acetylcholine receptor M4 (Homo sapiens) (UniProt P08173); assay: Binding affinity to muscarinic M4 (unknown origin) 10 umol/L by radioligand binding assay; details: dose 10.0 µmol/L
[6] = molecular target: Metabotropic glutamate receptor 2 (Homo sapiens, UniProt Q14416); assay: Agonist activity at human mGlu2 receptor expressed in CHO cell membranes by GTPgammaS binding assay; format: functional, Cell membrane
[7] = molecular target: T2, Metabotropic glutamate receptor 1 (Homo sapiens, UniProt Q13255); assay: Antagonist activity at human mGlu1 receptor expressed in CHO cell membranes in presence of glutamate by intracellular Ca2+ assay; format: functional, Cell membrane
T2 sequence (Q13255 whole entry): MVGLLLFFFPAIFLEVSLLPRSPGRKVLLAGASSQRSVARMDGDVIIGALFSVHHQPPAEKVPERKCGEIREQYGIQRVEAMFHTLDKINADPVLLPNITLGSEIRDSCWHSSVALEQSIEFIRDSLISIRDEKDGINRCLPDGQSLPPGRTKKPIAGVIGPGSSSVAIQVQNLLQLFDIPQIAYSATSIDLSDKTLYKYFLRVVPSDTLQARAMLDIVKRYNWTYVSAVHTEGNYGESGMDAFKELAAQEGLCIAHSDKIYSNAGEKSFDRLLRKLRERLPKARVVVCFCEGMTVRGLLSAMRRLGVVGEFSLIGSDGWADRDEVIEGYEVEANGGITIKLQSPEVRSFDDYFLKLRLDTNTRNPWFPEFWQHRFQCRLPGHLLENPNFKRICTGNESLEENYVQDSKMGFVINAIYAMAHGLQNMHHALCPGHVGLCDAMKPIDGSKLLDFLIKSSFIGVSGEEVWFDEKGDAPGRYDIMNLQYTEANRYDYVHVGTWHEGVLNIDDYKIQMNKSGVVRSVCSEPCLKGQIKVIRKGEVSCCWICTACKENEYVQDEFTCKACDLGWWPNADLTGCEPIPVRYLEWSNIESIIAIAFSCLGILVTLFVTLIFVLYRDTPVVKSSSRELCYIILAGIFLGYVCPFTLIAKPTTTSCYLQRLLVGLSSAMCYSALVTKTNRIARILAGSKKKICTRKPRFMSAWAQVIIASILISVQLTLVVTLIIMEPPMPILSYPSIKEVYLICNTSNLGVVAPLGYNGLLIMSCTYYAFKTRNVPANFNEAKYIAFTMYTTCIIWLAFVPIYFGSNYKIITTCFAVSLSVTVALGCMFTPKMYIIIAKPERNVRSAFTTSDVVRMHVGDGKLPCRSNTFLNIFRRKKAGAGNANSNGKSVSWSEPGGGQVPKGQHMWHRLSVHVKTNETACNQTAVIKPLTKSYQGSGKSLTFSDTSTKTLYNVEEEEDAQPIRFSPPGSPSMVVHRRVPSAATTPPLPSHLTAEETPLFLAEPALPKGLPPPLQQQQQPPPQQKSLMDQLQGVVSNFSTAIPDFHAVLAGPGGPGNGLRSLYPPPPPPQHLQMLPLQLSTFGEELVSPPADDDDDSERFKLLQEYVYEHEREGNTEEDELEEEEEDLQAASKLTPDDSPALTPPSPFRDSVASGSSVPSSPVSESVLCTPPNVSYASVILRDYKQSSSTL

[8] = Oral bioavailability in monkey at 4.92 umol/kg measured up to 24 hrs by LC-MS/MS analysis; format: ADME, organism-based, Macaca mulatta; details: rhesus monkey, in vivo, at 4.92 µmol/kg
[9] = molecular target: T3, Metabotropic glutamate receptor 4 (Homo sapiens, UniProt Q14833); assay: Antagonist activity at human mGlu4 receptor expressed in CHO cell membranes in presence of glutamate by GTPgammaS binding assay; format: functional, Cell membrane
[10] = molecular target: Metabotropic glutamate receptor 3 (Rattus norvegicus) (UniProt P31422); assay: Agonist activity at rat mGlu3 receptor expressed in CHO cell membranes by GTPgammaS binding assay relative to control; format: functional; details: Cell membrane, filed as agonist
[11] = molecular target: T4, Metabotropic glutamate receptor 6 (Homo sapiens, UniProt O15303); assay: Antagonist activity at human mGlu6 receptor expressed in HEK293T cell membranes in presence of glutamate by GTPgammaS binding assay; format: functional, Cell membrane
T4 sequence (O15303 whole entry): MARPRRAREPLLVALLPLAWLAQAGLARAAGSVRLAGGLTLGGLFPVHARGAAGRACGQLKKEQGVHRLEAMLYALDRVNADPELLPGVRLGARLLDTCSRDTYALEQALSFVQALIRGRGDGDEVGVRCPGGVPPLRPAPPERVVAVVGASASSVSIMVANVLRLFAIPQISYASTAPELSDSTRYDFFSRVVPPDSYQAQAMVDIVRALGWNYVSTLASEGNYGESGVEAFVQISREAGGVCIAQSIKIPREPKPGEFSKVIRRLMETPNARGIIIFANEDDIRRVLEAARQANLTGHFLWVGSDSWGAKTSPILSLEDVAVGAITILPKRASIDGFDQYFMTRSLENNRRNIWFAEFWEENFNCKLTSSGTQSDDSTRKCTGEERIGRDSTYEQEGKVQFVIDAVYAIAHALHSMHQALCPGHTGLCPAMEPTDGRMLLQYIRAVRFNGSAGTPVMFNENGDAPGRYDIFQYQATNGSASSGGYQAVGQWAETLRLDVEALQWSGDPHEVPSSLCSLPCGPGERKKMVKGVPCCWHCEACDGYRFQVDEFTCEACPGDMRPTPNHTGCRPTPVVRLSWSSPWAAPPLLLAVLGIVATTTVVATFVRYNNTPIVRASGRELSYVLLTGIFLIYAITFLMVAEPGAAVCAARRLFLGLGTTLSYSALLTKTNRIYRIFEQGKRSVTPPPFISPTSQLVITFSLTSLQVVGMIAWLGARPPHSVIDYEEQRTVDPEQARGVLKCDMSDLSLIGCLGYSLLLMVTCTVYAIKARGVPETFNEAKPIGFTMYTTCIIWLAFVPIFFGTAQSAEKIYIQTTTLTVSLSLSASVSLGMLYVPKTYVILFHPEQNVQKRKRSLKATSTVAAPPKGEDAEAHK

[12] = molecular target: Metabotropic glutamate receptor 3 (Rattus norvegicus, UniProt P31422); assay: Agonist activity at rat mGlu3 receptor expressed in CHO cell membranes by GTPgammaS binding assay; format: functional, Cell membrane
[13] = molecular target: T5, Metabotropic glutamate receptor 8 (Homo sapiens, UniProt O00222); assay: Antagonist activity at human mGlu8 receptor expressed in CHO cell membranes in presence of glutamate by GTPgammaS binding assay; format: functional, Cell membrane
T5 sequence (O00222 whole entry): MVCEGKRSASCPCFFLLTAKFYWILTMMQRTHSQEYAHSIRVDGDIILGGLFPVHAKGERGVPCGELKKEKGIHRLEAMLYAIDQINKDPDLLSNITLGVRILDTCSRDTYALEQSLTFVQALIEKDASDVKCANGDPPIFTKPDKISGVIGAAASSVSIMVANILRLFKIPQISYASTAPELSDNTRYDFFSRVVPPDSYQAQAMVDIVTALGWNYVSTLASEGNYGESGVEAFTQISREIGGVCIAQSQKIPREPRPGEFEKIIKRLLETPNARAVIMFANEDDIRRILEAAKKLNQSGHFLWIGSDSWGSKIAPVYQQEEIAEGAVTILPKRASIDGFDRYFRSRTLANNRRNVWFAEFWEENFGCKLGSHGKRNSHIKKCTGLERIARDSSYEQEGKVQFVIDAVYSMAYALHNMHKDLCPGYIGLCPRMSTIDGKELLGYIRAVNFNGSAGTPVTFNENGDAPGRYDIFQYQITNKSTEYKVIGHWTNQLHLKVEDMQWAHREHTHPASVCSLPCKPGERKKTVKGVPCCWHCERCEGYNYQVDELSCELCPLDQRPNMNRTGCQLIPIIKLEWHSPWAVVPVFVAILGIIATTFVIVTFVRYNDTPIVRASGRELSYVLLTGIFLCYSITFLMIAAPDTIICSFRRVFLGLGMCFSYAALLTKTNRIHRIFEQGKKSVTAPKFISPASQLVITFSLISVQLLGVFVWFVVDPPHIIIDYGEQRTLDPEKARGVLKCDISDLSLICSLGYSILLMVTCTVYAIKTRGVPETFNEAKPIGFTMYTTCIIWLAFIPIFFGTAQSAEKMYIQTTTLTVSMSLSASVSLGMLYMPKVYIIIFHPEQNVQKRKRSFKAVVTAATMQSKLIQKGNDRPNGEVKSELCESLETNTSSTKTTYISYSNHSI

[14] = molecular target: T3, Metabotropic glutamate receptor 4; assay: Agonist activity at human mGlu4 receptor expressed in CHO cell membranes by GTPgammaS binding assay; format: functional, Cell membrane
[15] = molecular target: T2, Metabotropic glutamate receptor 1; assay: Agonist activity at human mGlu1 receptor expressed in CHO cell membranes by intracellular Ca2+ assay; format: functional, Cell membrane
[16] = molecular target: T4, Metabotropic glutamate receptor 6; assay: Agonist activity at human mGlu6 receptor expressed in HEK293T cell membranes by GTPgammaS binding assay; format: functional, Cell membrane
[17] = molecular target: T1, Metabotropic glutamate receptor 3; assay: Antagonist activity at human mGlu3 receptor expressed in CHO cell membranes in presence of glutamate by GTPgammaS binding assay; format: functional, Cell membrane
Target sequence in this assay (Q14832 whole entry): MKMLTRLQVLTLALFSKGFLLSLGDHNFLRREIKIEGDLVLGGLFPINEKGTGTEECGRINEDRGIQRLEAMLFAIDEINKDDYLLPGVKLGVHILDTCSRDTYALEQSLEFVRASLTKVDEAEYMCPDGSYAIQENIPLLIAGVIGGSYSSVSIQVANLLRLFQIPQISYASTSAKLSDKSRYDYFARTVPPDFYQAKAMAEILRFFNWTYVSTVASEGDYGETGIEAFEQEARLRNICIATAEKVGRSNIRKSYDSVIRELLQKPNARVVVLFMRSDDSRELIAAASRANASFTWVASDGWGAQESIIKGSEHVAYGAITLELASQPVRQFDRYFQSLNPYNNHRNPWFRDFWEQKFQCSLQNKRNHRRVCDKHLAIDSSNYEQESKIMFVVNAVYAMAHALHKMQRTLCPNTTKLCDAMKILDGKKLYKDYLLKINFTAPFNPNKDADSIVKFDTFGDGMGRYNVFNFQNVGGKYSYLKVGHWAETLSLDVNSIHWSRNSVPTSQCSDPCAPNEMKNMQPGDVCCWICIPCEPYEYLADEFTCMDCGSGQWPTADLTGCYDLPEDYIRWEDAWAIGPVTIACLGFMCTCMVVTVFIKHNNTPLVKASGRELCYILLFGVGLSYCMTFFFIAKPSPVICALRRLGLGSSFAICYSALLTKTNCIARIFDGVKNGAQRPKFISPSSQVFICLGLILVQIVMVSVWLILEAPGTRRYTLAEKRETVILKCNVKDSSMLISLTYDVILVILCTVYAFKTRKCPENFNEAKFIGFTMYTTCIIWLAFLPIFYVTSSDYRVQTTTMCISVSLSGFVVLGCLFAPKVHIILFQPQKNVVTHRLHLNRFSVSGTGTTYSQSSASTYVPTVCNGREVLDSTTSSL

[18] = molecular target: T5, Metabotropic glutamate receptor 8; assay: Agonist activity at human mGlu8 receptor expressed in CHO cell membranes by GTPgammaS binding assay; format: functional, Cell membrane

Compound	Activity [1]	Activity [2]	Activity [3]	EC50 [4] [µM]	Activity [5]	EC50 [6] [µM]	IC50 [7] [µM]	bioavailability [8] [%]	IC50 [9] [µM]	Emax [10] [%]	IC50 [11] [µM]	Emax ([4]; Cell membrane, filed as agonist) [%]	EC50 [12] [µM]	IC50 [13] [µM]	EC50 [14] [µM]	EC50 [15] [µM]	EC50 [16] [µM]	IC50 [17] [µM]	EC50 [18] [µM]
CC(C)[C@@H]1CC[C@@H](C)C[C@H]1OC(=O)O[C@@H](C)OC(=O)[C@H]1[C@@H]2C[C@H](F)[C@@](N)(C(=O)O)[C@@H]21	inactive	inactive	inactive	> 30	inactive	> 30													
N[C@]1(C(=O)O)[C@H]2[C@@H](C[C@@H]1F)[C@@H]2C(=O)O	inactive	inactive	inactive		inactive		> 30	4	> 30	99.7	> 30	102	0.0969	> 30	> 30	> 30	> 30	> 30	> 30
